Test results reported in patent US12662707B2, “MYC amplification drives resistance to pan-RAS inhibitors in pancreatic cancer” (The Trustees of Columbia University in the City of New York, priority 2024, dated 2026).

Columns and labels:
[1] = tested on: pERK in KPF/FC tumors; test: PK/PD in KPF/FC tumors (pERK IHC); type: in vivo; settings: Mus musculus, read-out: EC50, pERK inhibition vs RMC-7977 concentration in tumors
Experimental: Tumor formation in KPF/FC (KrasLSL.G12D/+; p53flox/flox; Pdx1-Cre) mice was monitored by bi-weekly palpations until the detection of a mass, which was then confirmed by ultrasound. Tumor-bearing mice were randomized and assigned into groups (n=3/dose/timepoint). Single dose of RMC-7977 was administered orally at 10 mg/kg, 25 mg/kg and 50 mg/kg. The same vehicle formulation was used for the control group. Whole blood and tissue (tumors and colons) were harvested at indicated time points preserved as previously described (See Xenograft studies section).
Whole blood, tumor, colon and skin tissue concentrations of RMC-7977 were determined using liquid chromatography-tandem mass spectrometry (LC-MS/MS) methods. Tissue samples were homogenized with a 5× or 10× volume of homogenization buffer (methanol/15 mM PBS (1:2; v:v) or 15 mM PBS with 10% methanol). […] After thorough mixing and centrifugation, the supernatant was directly analyzed on a Sciex 6500+ triple quadrupole mass spectrometer equipped with an ACQUITY or Shimadzu UPLC system. […] RMC-7977 and IS (verapamil or terfenadine) were detected by positive electrospray ionization using multiple reaction monitoring (RMC-7977: m/z 865.4/706.4 or m/z 865.3/833.5; verapamil: m/z 455.2/164.9; terfenadine: m/z 472.3/436.4). The lower limit of quantification was 0.5 ng/mL or 2.0 ng/mL for blood, tumor, and other tissue. […]

[2] = tested on: KPCY-derived PDAC cell line (6499c4) allografts; test: KPCY 6499c4 syngeneic allograft studies; type: in vivo, mouse
Experimental: All murine allograft studies and procedures related to animal handling, care and treatment were conducted in compliance with all applicable regulations and guidelines of the Institutional Animal Care and Use Committee (IACUC). Female C57BL/6J (strain 000664) mice aged 6-8 weeks from the Jackson Laboratory (Bar Harbor, ME USA) were used for these studies.
In order to generate subcutaneous (SC) allograft tumors, each mouse was inoculated in the right flank with 3×10^5 of KPCY 6499c4 tumor cells in 0.1 ml of Matrigel:PBS (1:1). Treatments were started when the average tumor size reached 140 mm^3. Tumor size was measured at two dimensions using a digital caliper, and the tumor volume in mm^3 was calculated using the formula: Volume=((width)2×length)/2. Mice on studies were weighed and tumors were measured 2 times a week.
To generate orthotopic allograft tumors, 5×10^4 KPCY 6499c4 tumor cells in 20 μL PBS/Matrigel mixtures (1:1) were implanted directly into the mouse pancreas through a laparoscopic incision. Treatments were started when the average tumor size reached […]. Body weights were measured and tumor growth was monitored by ultrasound twice weekly.
Tumor-bearing animals were randomized, assigned into groups (n=9-10/group), and treated daily via oral gavage with Vehicle or RMC-7977 (10 mg/kg, q.d.). For SC KPCY study, survival endpoint was defined as: tumor volume reaching 2000 mm^3 or mice showing any clinical signs, including severe ulceration. For orthotopic KPCY study, survival endpoint was defined as (1) mice showing any clinical signs including hunching or fluid in the abdomen, or (2) tumor dimensions exceeding the imaging frame of the ultrasound. Body weights were measured twice a week during the study. Tissue was harvested either at 4 hours or 24 hours after last dose and preserved as previously described (See Xenograft studies section).
To stain tissues collected from the KPCY allograft model, a Biocare IntelliPATH automation system was used, and primary antibodies were detected with the MACH4-HRP-polymer Detection System (Biocare, MRH534). Stained slides were scanned and digitized with a TissueScope LE (Huron Digital Pathology) whole slide scanner at 20× magnification. Image analysis was performed using HALO software from Indica Labs.

[3] = orthotopic CDA model, four hours after treatment

CCn1c(-c2cc(N3CCN(C4CC4)CC3)cnc2[C@H](C)OC)c2c3cc(ccc31)-c1csc(n1)C[C@H](NC(=O)[C@H]1[C@@H]3COC[C@@H]31)C(=O)N1CCC[C@H](N1)C(=O)OCC(C)(C)C2 [RMC-7977]
EC50 [1]: 321 nM
tumor regressions ([2]; 10 mg/kg q.d.): without inducing significant regressions
apoptosis in tumors [2, 3]: increased apoptosis
pERK levels in tumors [2, 3]: reduced pERK levels
tumor growth ([2]; subcutaneous or orthotopic, immunocompetent C57Bl/6 mice, 10 mg/kg q.d.): diminished tumor growth
overall survival ([2]; subcutaneous or orthotopic, 10 mg/kg q.d.): extended overall survival
